Data set [1] is classed as physicochemical.
In data set [2] the target is human α9α10 nicotinic acetylcholine receptor (nAChR) (human) (UniProt Q9UGM1). The data set is described as follows: cell-based or functional assay.
Data set [3] has as its target α7 nAChR (Rattus norvegicus, UniProt Q05941). Particulars: cited from earlier work.

The values below come from US10947274B1 (priority 2018, dated 2021).

Chain of α7 nAChR (Q05941 23-502 limits assumed): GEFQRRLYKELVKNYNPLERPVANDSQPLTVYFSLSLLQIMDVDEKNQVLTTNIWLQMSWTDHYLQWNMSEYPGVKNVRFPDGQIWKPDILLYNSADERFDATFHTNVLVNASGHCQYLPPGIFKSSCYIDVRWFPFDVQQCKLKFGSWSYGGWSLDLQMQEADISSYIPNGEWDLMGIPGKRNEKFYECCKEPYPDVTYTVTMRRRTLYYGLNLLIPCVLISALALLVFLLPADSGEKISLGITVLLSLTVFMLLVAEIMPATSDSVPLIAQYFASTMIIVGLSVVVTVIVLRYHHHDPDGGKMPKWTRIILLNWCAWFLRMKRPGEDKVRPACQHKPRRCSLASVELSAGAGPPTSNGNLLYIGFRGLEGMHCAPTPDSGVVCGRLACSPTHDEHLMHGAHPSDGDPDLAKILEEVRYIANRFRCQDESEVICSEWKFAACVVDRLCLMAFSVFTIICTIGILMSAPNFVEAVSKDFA
Chain of human α9α10 nicotinic acetylcholine receptor (nAChR) (human) (Q9UGM1 23-479, chain 1 of 2): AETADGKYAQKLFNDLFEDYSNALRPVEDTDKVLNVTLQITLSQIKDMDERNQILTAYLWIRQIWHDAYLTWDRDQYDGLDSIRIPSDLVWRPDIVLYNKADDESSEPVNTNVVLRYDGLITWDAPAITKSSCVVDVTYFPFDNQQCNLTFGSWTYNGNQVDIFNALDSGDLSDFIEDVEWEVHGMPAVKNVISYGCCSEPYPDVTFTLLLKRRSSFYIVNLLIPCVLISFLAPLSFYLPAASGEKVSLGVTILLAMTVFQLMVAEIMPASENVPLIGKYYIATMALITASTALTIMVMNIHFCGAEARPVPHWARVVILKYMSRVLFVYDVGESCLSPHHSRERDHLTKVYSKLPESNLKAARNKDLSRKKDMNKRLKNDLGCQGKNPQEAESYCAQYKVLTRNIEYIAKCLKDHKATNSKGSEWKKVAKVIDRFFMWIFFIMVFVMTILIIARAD
Chain of human α9α10 nicotinic acetylcholine receptor (nAChR) (human) (Q9GZZ6 25-450, chain 2 of 2, further chain): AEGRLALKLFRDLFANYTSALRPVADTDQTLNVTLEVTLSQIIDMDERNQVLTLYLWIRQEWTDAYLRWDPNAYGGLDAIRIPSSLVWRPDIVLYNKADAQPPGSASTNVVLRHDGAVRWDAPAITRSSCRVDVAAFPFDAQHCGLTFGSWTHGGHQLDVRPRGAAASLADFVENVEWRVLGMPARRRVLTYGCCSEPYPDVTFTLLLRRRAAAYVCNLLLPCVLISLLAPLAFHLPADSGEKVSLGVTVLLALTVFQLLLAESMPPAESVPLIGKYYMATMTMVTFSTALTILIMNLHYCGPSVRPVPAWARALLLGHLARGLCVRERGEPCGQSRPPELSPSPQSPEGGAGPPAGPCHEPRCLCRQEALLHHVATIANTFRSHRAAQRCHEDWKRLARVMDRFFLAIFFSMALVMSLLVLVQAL

GCCTDPRC(Cit)(I-3-Y)QCY [RgIA4]: the “area under the curve, % of the total” value in data set [1] (at 8 h) is listed as 26.3%. The “share of intact (globular) peptide over time” value in data set [1] (pH 7.3) is “minority component”.

[C3Pen;14R]RgIA5 (peptide) yielded an IC50 (nM), block of the acetylcholine response, voltage-clamped Xenopus oocytes in data set [2] of 0.5 nM.

α-conotoxin ImI: the IC50 (commonly the concentration needed to halve the response being measured) in data set [3] was 69.3 ± 15.5 nM.
